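Each compound was tested at five concentrations against cells in 96-well plates for 48 hours. GI50 marks 50% less growth.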 Activity calls are given as the source filed them. Cut-off read from the data, not from the text of the source: active = GI50 up to about 1.1 µM and inactive = higher.
What was measured:
Test in all cases: inhibition of tumour cell growth, NCI panel, 48 h
HOP-92 = tested on: HOP-92
OVCAR-3 = tested on: OVCAR-3
ACHN = tested on: ACHN
IGROV-1 = tested on: IGROV-1
Malme-3M = tested on: Malme-3M
NCI-H460 = tested on: NCI-H460
COLO 205 = tested on: COLO 205
OVCAR-4 = tested on: OVCAR-4
A498 = tested on: A498
KM12 = tested on: KM12
SK-MEL-5 = tested on: SK-MEL-5
NCI-H23 = tested on: NCI-H23
OVCAR-8 = tested on: OVCAR-8
786-0 = tested on: 786-0
SF-268 = tested on: SF-268
UACC-62 = tested on: UACC-62
MCF7 = tested on: MCF7
CAKI-1 = tested on: CAKI-1
U-251 = tested on: U-251
SK-OV-3 = tested on: SK-OV-3
NCI-H226 = tested on: NCI-H226
HCC 2998 = tested on: HCC 2998
LOX IMVI = tested on: LOX IMVI
RPMI-8226 = tested on: RPMI-8226
SW-620 = tested on: SW-620
DU-145 = tested on: DU-145
HCT-116 = tested on: HCT-116
MOLT-4 = tested on: MOLT-4
EKVX = tested on: EKVX
SF-295 = tested on: SF-295
A549 = tested on: A549
UACC-257 = tested on: UACC-257
SNB-75 = tested on: SNB-75
SNB-19 = tested on: SNB-19
MDA-MB-231 = tested on: MDA-MB-231
Hs-578T = tested on: Hs-578T
HT-29 = tested on: HT-29
SK-MEL-2 = tested on: SK-MEL-2
M14 = tested on: M14
HCT-15 = tested on: HCT-15
SK-MEL-28 = tested on: SK-MEL-28
BT-549 = tested on: BT-549
SF-539 = tested on: SF-539
TK-10 = tested on: TK-10
MDA-N = tested on: MDA-N
RXF 393 = tested on: RXF 393
OVCAR-5 = tested on: OVCAR-5
NCI-H522 = tested on: NCI-H522
HOP-62 = tested on: HOP-62
SN12C = tested on: SN12C
PC-3 = tested on: PC-3
MDA-MB-435 = tested on: MDA-MB-435
UO-31 = tested on: UO-31
HL-60 = tested on: HL-60
SR = tested on: SR
NCI/ADR-RES = tested on: NCI/ADR-RES
K562 = tested on: K562

Measured: GI50

COc1cc(/C=C/C(C)=O)ccc1OP(=O)(O)O
> 100 µM: HCT-15
inactive: HOP-92 > 100 µM | OVCAR-3 > 100 µM | ACHN > 100 µM | IGROV-1 > 100 µM | Malme-3M > 100 µM | NCI-H460 > 100 µM | COLO 205 > 100 µM | OVCAR-4 > 100 µM | A498 > 100 µM | KM12 > 100 µM | SK-MEL-5 > 100 µM | NCI-H23 > 100 µM | OVCAR-8 > 100 µM | 786-0 > 100 µM | SF-268 > 100 µM | UACC-62 > 100 µM | MCF7 > 100 µM | CAKI-1 > 100 µM | U-251 > 100 µM | SK-OV-3 > 100 µM | NCI-H226 > 100 µM | HCC 2998 > 100 µM | LOX IMVI > 100 µM | RPMI-8226 > 100 µM | SW-620 > 100 µM | DU-145 > 100 µM | HCT-116 > 100 µM | MOLT-4 > 100 µM | EKVX > 100 µM | SF-295 > 100 µM | A549 > 100 µM | UACC-257 > 100 µM | SNB-75 > 100 µM | SNB-19 > 100 µM | MDA-MB-231 > 100 µM | Hs-578T > 100 µM | HT-29 > 100 µM | SK-MEL-2 > 100 µM | M14 > 100 µM | SK-MEL-28 > 100 µM | BT-549 > 100 µM | SF-539 > 100 µM | TK-10 > 100 µM | MDA-N > 100 µM | RXF 393 > 100 µM | OVCAR-5 > 100 µM | NCI-H522 > 100 µM | HOP-62 > 100 µM | SN12C > 100 µM | PC-3 > 100 µM | MDA-MB-435 > 100 µM | UO-31 > 100 µM

O=C(Cn1c2c(c3ccccc31)CCCC2)N1CCCC1
inactive: HOP-92 > 100 µM | OVCAR-3 83.9 µM | ACHN > 100 µM | IGROV-1 > 100 µM | Malme-3M > 100 µM | NCI-H460 > 100 µM | COLO 205 > 100 µM | OVCAR-4 27.4 µM | A498 65 µM | SK-MEL-5 54.3 µM | NCI-H23 > 100 µM | OVCAR-8 > 100 µM | 786-0 > 100 µM | UACC-62 78.5 µM | MCF7 > 100 µM | CAKI-1 > 100 µM | SK-OV-3 > 100 µM | HCC 2998 > 100 µM | HL-60 94.6 µM | LOX IMVI > 100 µM | RPMI-8226 > 100 µM | SW-620 > 100 µM | HCT-116 63.1 µM | EKVX > 100 µM | SF-295 61.8 µM | A549 > 100 µM | UACC-257 > 100 µM | SR 88.9 µM | SNB-19 > 100 µM | Hs-578T 22.8 µM | NCI/ADR-RES 96.4 µM | HT-29 > 100 µM | SK-MEL-2 > 100 µM | M14 > 100 µM | SK-MEL-28 > 100 µM | BT-549 > 100 µM | SF-539 69.8 µM | TK-10 > 100 µM | MDA-N > 100 µM | OVCAR-5 > 100 µM | HOP-62 > 100 µM | SN12C > 100 µM | PC-3 > 100 µM | MDA-MB-435 77.1 µM | UO-31 38.4 µM | K562 > 10 µM
80.7 µM: HCT-15

Source: ChEMBL document CHEMBL1201862, “PubChem BioAssay data set” (2004)
